Activity calls are given as the source filed them. No cut-off for these calls is given here.
What was measured:
[1] = target: T1, Amyloid-beta precursor protein (Homo sapiens, UniProt P05067); experiment: Inhibition of amyloid beta (1 to 42) (unknown origin) self aggregation assessed as disaggregation
[2] = Metal chelating activity assessed as compound-Cu2+ complex formation by measuring shift at 1:1 at 50 uM in PBS buffer 7.4 by UV-vis spectrometric analysis
[3] = Metal chelating activity assessed as compound-Fe2+ complex formation by measuring shift at 2:1 at 50 uM in PBS buffer 7.4 by UV-vis spectrometric analysis
[4] = target: T1, Amyloid-beta precursor protein; experiment: Inhibition of Fe3+ induced of amyloid beta (1 to 42) aggregation (unknown origin)
[5] = target: T1, Amyloid-beta precursor protein; experiment: Inhibition of amyloid beta (1 to 42) (unknown origin) self aggregation assessed as decrease in number of amyloid beta fibrils at 50 uM for 24 hrs
BV-2 [6] = experiment: Effect of amyloid beta (1 to 42) indued apoptosis in mouse BV-2 cells assessed as early apoptotic cells at 10 uM measured by propidium iodide staining based flow cytometric analysis (reference value: 26.12%); format: functional
[7] = Half life in Sprague-Dawley rat at 15 mg/kg, IG; format: ADME, organism-based; details: in vivo, po
[8] = Cmax in Sprague-Dawley rat at 15 mg/kg, IG; format: ADME, organism-based; design: dose 15 mg/kg, route ig; details: in vivo, po
[9] = AUC(0 to t) in Sprague-Dawley rat at 15 mg/kg, IG; format: ADME, organism-based; design: dose 15 mg/kg, route ig; details: in vivo, po
[10] = Clearance in Sprague-Dawley rat at 15 mg/kg, IG; format: ADME, organism-based; details: in vivo, po
[11] = Drug concentration in plasma of Sprague-Dawley rat at 15 mg/kg, IG measured after 0.167 hrs; format: ADME, organism-based; details: po
[12] = Drug concentration in plasma of Sprague-Dawley rat at 15 mg/kg, IG measured after 0.25 hrs; format: ADME, organism-based; details: po
[13] = Drug concentration in hippocampus of Sprague-Dawley rat at 15 mg/kg, IG measured after 0.083 hrs; format: ADME, organism-based; details: po, read-out: Drug uptake
[14] = Ratio of drug concentration in hippocampus to plasma of Sprague-Dawley rat at 15 mg/kg, IG measured after 0.083 hrs; format: ADME, organism-based; details: po
[15] = Ratio of drug concentration in hippocampus to plasma of Sprague-Dawley rat at 15 mg/kg, IG measured after 0.167 hrs; format: ADME, organism-based; details: po
[16] = Ratio of drug concentration in hippocampus to plasma of Sprague-Dawley rat at 15 mg/kg, IG measured after 0.25 hrs; format: ADME, organism-based; details: po
[17] = Acute toxicity in mouse assessed as histopathological change in heart at 2000 mg/kg, IG administered as single dose measured after 14 days measured by H and E staining analysis; format: organism-based; details: in vivo, po, 336 h, time 14 day
[18] = Acute toxicity in mouse assessed as histopathological change in spleen at 2000 mg/kg, IG administered as single dose measured after 14 days measured by H and E staining analysis; format: organism-based; details: in vivo, po, 336 h, time 14 day
[19] = Acute toxicity in mouse assessed as histopathological change in brain at 2000 mg/kg, IG administered as single dose measured after 14 days measured by H and E staining analysis; format: organism-based; details: in vivo, po, 336 h, time 14 day
Mus musculus [20] = experiment: Neuroprotective effect in scopolamine induced cognitively impaired mouse assessed as recovery of decreased Nissl bodies in CA3 region at hippocampus at 20 mg/kg by Nissl staining analysis; format: functional, organism-based
Mus musculus [21] = experiment: Antioxidant activity in scopolamine induced cognitive impaired mouse assessed as decrease of MDA level in cortex at 20 mg/kg; format: functional, organism-based
Mus musculus [22] = experiment: Antioxidant activity in scopolamine induced cognitive impaired mouse assessed as increase of GSH level in cortex at 20 mg/kg; format: functional, organism-based
Mus musculus [23] = experiment: In vivo effect on NRF2 expression in scopolamine induced cognitive impaired mouse assessed as reversal of NRF2 signalling in hippocampus treated at 20 mg/kg by immunofluorescence analysis; format: functional, organism-based
BV-2 [24] = experiment: Antioxidant activity in H2O2 treated mouse BV-2 cells assessed as nuclear translocation of NRF2 at 5 to 20 uM by immunofluorescence analysis; format: functional, cell-based; details: dose 5-20 µM
Mus musculus [25] = experiment: In vivo antiinflammatory activity in scopolamine induced cognitive impaired ICR mouse assessed as decrease in Iba1 levels in cortex; format: functional, organism-based
Mus musculus [26] = experiment: In vivo antiinflammatory activity in scopolamine induced cognitive impaired ICR mouse assessed as decrease in Iba1 levels in hippocampus by immunoblot analysis; format: functional, organism-based

T1 sequence (P05067 whole entry): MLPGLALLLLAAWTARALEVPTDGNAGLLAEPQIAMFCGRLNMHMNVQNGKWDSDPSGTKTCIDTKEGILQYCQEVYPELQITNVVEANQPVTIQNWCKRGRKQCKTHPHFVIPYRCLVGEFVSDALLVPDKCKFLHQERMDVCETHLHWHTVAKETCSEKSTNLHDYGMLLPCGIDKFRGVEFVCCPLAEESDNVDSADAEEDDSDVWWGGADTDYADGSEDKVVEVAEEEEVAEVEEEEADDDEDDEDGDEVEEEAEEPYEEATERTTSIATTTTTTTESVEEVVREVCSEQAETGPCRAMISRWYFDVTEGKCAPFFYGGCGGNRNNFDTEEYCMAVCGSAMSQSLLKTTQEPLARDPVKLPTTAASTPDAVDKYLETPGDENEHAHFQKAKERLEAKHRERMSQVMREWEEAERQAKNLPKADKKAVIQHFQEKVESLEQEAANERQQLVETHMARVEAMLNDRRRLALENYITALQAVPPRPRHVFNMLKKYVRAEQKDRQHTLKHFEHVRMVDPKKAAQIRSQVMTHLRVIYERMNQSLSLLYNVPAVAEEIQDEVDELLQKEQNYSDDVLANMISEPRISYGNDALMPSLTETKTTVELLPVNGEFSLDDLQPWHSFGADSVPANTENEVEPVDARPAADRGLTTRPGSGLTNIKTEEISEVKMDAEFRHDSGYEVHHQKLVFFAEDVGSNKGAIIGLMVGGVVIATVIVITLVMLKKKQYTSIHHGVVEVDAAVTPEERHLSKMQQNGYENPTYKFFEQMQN

O=c1ccoc(/C=C/c2ccc(O)c(O)c2)c1O
IC50 [1]: 6.87 µM | Activity [2]: Active | Activity [3]: Active | IC50 [4]: 9.68 µM | inhibition [5]: Active | Activity (BV-2 [6]): 22.1% | half-life [7]: 14 h | Cmax [8]: 14.4 ng/mL | AUC(0-t) [9]: 24.4 ng·h/mL | CL/F [10]: 481 L/h/kg | concentration at 0.167 h [11]: 22.2 ng/mL | concentration at 0.25 h [12]: 5.32 ng/mL | concentration at 0.083 h [13]: 1.14 ng/mL | Kp at 0.083 h [14]: 0.07 | Kp at 0.167 h [15]: 0.07 | Kp at 0.25 h [16]: 0.5 | Activity [17]: Non-Toxic | Activity [18]: Non-Toxic | Activity [19]: Non-Toxic | Activity (Mus musculus [20]): Active | Activity (Mus musculus [21]): Active | Activity (Mus musculus [22]): Active | Activity (Mus musculus [23]): Active | Activity (BV-2 [24]): Active | Activity (Mus musculus [25]): Active | Activity (Mus musculus [26]): Active

From ChEMBL document CHEMBL5325414, “Novel neuroprotective pyromeconic acid derivatives with concurrent anti-Aβ deposition, anti-inflammatory, and anti-oxidation properties for treatment of Alzheimer's disease” (Eur J Med Chem, 2023)
